The values below come from patent US9056865B2, “Pyridine-2-derivatives as smoothened receptor modulators” (Pfizer Inc., priority 2010, dated 2015).

One test concerns the target human Smo (Homo sapiens (Human), UniProt Q99835). The test is described as follows: Smo radioligand competition binding assay. As to conditions: for inhibition at 0.05 µM: 0.05 μM test compound, read-out: Smo % inh. @ 0.05 μM. In short, it runs like this:
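Membranes from HEK293 cells expressing surface human Smo 181-781 (40 μg protein/well) incubated 2 h at room temperature with test compound and tritiated Smo antagonist (3 nM), pH 7.5 Tris buffer; filtration and scintillation counting. Non-specific binding defined with 30 μM cold antagonist; IC50 from four-parameter sigmoidal fit.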
In general terms: In a radioligand displacement assay an active substance lowers the binding of a labelled ligand.

The subject of a further test is Gli-Luc/MEF cells. As to the kind of experiment: Gli-Luc/MEF assay. It is filed as cell-based, mouse. Conditions: Mus musculus, MEF; Shh-stimulated luciferase, 48 hours. In outline:
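Shh-stimulated luciferase readout (Bright-Glo) after 48 h, 37 °C, 5% CO2, used to derive IC50 of inhibition. Gli-Luc transgenic mouse MEFs received test compounds at final […] in 3-fold dilutions, with recombinant mouse Shh added immediately at final 2 μg/mL.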

human Smo, sequence (Q99835 181-787): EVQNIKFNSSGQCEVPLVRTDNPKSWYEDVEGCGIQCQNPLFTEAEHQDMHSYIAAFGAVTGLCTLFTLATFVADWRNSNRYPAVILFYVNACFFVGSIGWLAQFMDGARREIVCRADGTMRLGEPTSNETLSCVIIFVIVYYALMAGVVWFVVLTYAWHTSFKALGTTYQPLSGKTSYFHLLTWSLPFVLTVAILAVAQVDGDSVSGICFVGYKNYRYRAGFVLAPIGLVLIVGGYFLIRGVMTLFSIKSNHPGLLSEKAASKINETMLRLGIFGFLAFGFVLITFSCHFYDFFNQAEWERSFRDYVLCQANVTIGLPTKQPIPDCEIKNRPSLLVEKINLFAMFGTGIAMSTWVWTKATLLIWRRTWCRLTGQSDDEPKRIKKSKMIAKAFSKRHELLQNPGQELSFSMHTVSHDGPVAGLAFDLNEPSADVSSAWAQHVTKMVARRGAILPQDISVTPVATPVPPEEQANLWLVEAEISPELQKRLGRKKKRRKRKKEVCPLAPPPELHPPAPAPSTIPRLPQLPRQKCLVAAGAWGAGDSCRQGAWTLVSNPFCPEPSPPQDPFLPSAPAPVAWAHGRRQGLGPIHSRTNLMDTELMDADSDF

The IC50 is the midpoint of a concentration-inhibition curve. Low readings indicate higher potency, high ones lower potency. `CCS(=O)(=O)NC1CCN(c2ccc(Cl)c(-c3ccccn3)n2)CC1` [Example A-132, N-[1-(3-chloro-2,2′-bipyridin-6-yl)piperidin-4-yl]ethanesulfonamide]: on human Smo, the concentration for half-maximal inhibition (IC50) was 38.2 nM and the inhibition at 0.05 µM amounted to 92%. Also, in the test with Gli-Luc/MEF cells, the IC50 was 33.7 nM.

Take `Cc1cccnc1-c1cc(N2CCC(NC(=O)CCS(C)(=O)=O)CC2)ncc1Cl` [Example A-95, N-[1-(5′-chloro-3-methyl-2,4′-bipyridin-2′-yl)piperidin-4-yl]-3-(methylsulfonyl)propanamide]: at human Smo, the IC50 is 37 nM and the inhibition at 0.05 µM was found to be 94%. This compound also showed a 50% inhibitory concentration (IC50) with Gli-Luc/MEF cells of 32 nM.

Regarding `Cc1cccnc1-c1cc(N2CCC(C(=O)Nc3cnn(C)n3)CC2)ncc1Cl` [Example A-88, 1-(5′-chloro-3-methyl-2,4′-bipyridin-2′-yl)-N-(2-methyl-2H-1,2,3-triazol-4-yl)piperidine-4-carboxamide], the figures for the IC50 on human Smo and in the test with Gli-Luc/MEF cells were 49 nM and 53 nM, respectively. Moreover, the inhibition at 0.05 µM on human Smo was determined as 85.6%.

Take `CC(=O)NC1CCN(c2cc(-c3ncccc3C)c(Cl)cn2)CC1` [Example A-35, N-[1-(5′-chloro-3-methyl-2,4′-bipyridin-2′-yl)piperidin-4-yl]acetamide]: the figures for the half-inhibitory concentration (IC50) on human Smo and in the test with Gli-Luc/MEF cells were 199 nM and 67.7 nM, respectively. In addition, the inhibition at 0.05 µM on human Smo stood at 70.6%.

Take `COCCS(=O)(=O)N1CCN(c2ccc(Cl)c(-c3ccccn3)n2)CC1` [Example A-136, 3-chloro-6-{4-[(2-methoxyethyl)sulfonyl]piperazin-1-yl}-2,2′-bipyridine]: on human Smo, the half-inhibitory concentration (IC50) is 328 nM and the inhibition at 0.05 µM was 58.8%. Half-maximal inhibition in the test on Gli-Luc/MEF cells (IC50) was put at 117 nM.

On to `COc1ccccc1CNC(=O)C1CCN(c2cc(-c3ncccc3C)c(Cl)cn2)CC1` [Example A-79, 1-(5′-chloro-3-methyl-2,4′-bipyridin-2′-yl)-N-(2-methoxybenzyl)piperidine-4-carboxamide], for which, on human Smo, the 50% inhibitory concentration (IC50) was 161 nM and the inhibition at 0.05 µM turned out to be 78.4%. In addition, the IC50 in the test on Gli-Luc/MEF cells came to 30.5 nM.

For `CCCNC(=O)COC1CCN(c2cc(-c3ncccc3C)c(Cl)cn2)CC1` [Example A-40, 2-{[1-(5′-chloro-3-methyl-2,4′-bipyridin-2′-yl)piperidin-4-yl]oxy}-N-propylacetamide], at human Smo, the IC50 is 254 nM and the inhibition at 0.05 µM was 70.2%. The midpoint of inhibition in the test with Gli-Luc/MEF cells, the IC50, lay at 114 nM.

Turning to `Cc1cnc(-c2cc(N3CCC(CS(N)(=O)=O)CC3)ncc2Cl)c(C)c1` [Example A-118, 1-[1-(5′-chloro-3,5-dimethyl-2,4′-bipyridin-2′-yl)piperidin-4-yl]methanesulfonamide], the IC50 on human Smo amounted to 11.1 nM; in the test on Gli-Luc/MEF cells, 8.46 nM. Further, the inhibition at 0.05 µM on human Smo amounted to 93.8%.

For `O=S(=O)(NC1CCN(c2ccc(Cl)c(-c3ccccn3)n2)CC1)C1CC1` [Example A-133, N-[1-(3-chloro-2,2′-bipyridin-6-yl)piperidin-4-yl]cyclopropanesulfonamide], the inhibition at 0.05 µM on human Smo was 94.3%. This compound showed a concentration for half-maximal inhibition (IC50) in the test on Gli-Luc/MEF cells of 11.7 nM.

As to `Cc1cc(Cl)cnc1-c1cc(N2CCC(NS(C)(=O)=O)CC2)ncc1Cl` [Example A-109, N-[1-(5,5′-dichloro-3-methyl-2,4′-bipyridin-2′-yl)piperidin-4-yl]methanesulfonamide], the values for the half-maximal inhibitory concentration (IC50) on human Smo and in the test with Gli-Luc/MEF cells were 20.5 nM and 6.81 nM, respectively. In addition, at human Smo, the inhibition at 0.05 µM is 97.4%.

With `Cc1cnc(-c2cc(N3CCC(CS(C)(=O)=O)CC3)ncc2Cl)c(C)c1` [Example A-98, 5′-chloro-3,5-dimethyl-2′-{4-[(methylsulfonyl)methyl]piperidin-1-yl}-2,4′-bipyridine], on human Smo, the half-inhibitory concentration (IC50) came out at 12.4 nM and the inhibition at 0.05 µM is 96.6%. This compound also displayed an IC50 in the test with Gli-Luc/MEF cells of 9.4 nM.

For `Cc1cccnc1-c1cc(N2CCC(C(=O)NCC3CCCCO3)CC2)ncc1Cl` (centres unmarked) [Example A-83, 1-(5′-chloro-3-methyl-2,4′-bipyridin-2′-yl)-N-(tetrahydro-2H-pyran-2-ylmethyl)piperidine-4-carboxamide], the values for the concentration for half-maximal inhibition (IC50) at human Smo and in the test on Gli-Luc/MEF cells were 138 nM and 48.5 nM, respectively. Further, the inhibition at 0.05 µM at human Smo stood at 78.9%.
